The values that follow come from US8569327B2, “Phenanthroindolizidine derivative and NFκB inhibitor containing same as active ingredient” (Kabushiki Kaisha Yakult Honsha, priority 2008, dated 2013).

The term IC50 denotes the concentration that gives 50% inhibition. For orientation: solubility means the dissolved amount per volume that the medium holds.

Marks after values point to notes of the source that are not given here.

One data set has as its system SV40 promoter. The experiment in a line: SV40 promoter activity, luciferase assay in SW480/SV40-Luc cells. The format is cell-based, human. In a few lines: (§1)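 Stable SW480 colon cancer lines carried luciferase driven by a 5× NFκB response element or by the SV40 promoter. Compound was added 1 h before 50 ng/mL TNFα, followed by 4 h culture at 37 °C; luminescence was read and IC50 taken as 50% inhibition of induced luciferase expression.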

The next data set concerns NFκB. Nature of the data set: Inhibitory action on the NFκB activity, luciferase assay in SW480/NRE-Luc cells. The format is cell-based, human. In a few lines:
as §1

Data set [1] concerns human colon cancer HT-29 cells. Nature of the data set: Inhibitory action on the proliferation of HT-29 cells. The format is cell-based. The note with it: 96 hours, TetraColor ONE. The procedure, abridged:
(§2)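 Cells seeded overnight (SW480 2000/well in 10% FBS/RPMI1640; A549, HT-29 1000/well in 10% FBS DMEM or DMEM F12 HAM), then compound-treated at 37 °C, 5% CO2 for 48 h (SW480) or 96 h (A549, HT-29). Viable cells counted by TetraColor ONE; IC50 for 50% proliferation inhibition.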

Data set [2] has as its system human non-small cell lung cancer A549 cells. Nature of the data set: Inhibitory action on the proliferation of A549 cells. The format is cell-based. The note with it: 96 hours, TetraColor ONE. In a few lines: as §2
The nature of another data set: Solubility of the salts. The text has this: In in vivo studies, each compound was used in the form of a salt.
In data set [3] the test system is human colon cancer SW480 cells. The experiment in a line: Inhibitory action on the proliferation of SW480 cells. Format: cell-based. The note with it: 48 hours, TetraColor ONE. The procedure, abridged:
as §2

In data set [4] the test system is human colon cancer HCT116 cells. The experiment in a line: Antitumor effect in mice transplanted with human colon cancer HCT116 cells. The format is in vivo, mouse. The note with it: intraperitoneal days 1-5 and 8-12, tumor weight day 21, BALB/c nude mice. An excerpt:
The antitumor effect of the phenanthroindolizidine alkaloid compound of the present invention in vivo was studied using mice transplanted with human colon cancer HCT116 cells. HCT116 cells were transplanted subcutaneously in the inguinal region of male 6-week-old BALB/c nude mice (2×10^6 cells/mouse). On days 1 to 5 and on days 8 to 12 after the time at which the estimated tumor volume obtained by ½ab^2 (a and b indicate the major axis and the minor axis of tumor, respectively) reached approximately 100 mm^3 (day 0), the compound of the present invention was administered (intraperitoneal administration). To a control group, a 5% glucose solution, a solvent, was administered. On day 21, tumor was excised and measured for its weight, and subsequently a tumor proliferation-inhibition rate IR (%) was calculated.

For `COc1cc2c3c(c4ccc(F)cc4c2cc1OC)C[C@@H]1CCCN1C3.CS(=O)(=O)O` [Compound 44, (S)-3-fluoro-6,7-dimethoxy-9,10,11,12,12a,13-hexahydro-9a-aza-cyclopenta[b]triphenylene methanesulfonate], the IC50 with SV40 promoter (Homo sapiens, SW480, read-out: SV40 promoter inhibitory activity IC50) was over 1 µg/mL; in the data set on NFκB (Homo sapiens, SW480, read-out: NFκB inhibitory activity IC50), 0.0368 µg/mL; in data set [1] (Homo sapiens, HT-29) it was 0.0128 µg/mL; in data set [2] (Homo sapiens, A549) it was 0.006 µg/mL; in data set [3] (Homo sapiens, SW480), 0.0649 µg/mL. Further, the solubility in the data set “Solubility of the salts” (aqueous solution of 5% glucose, saline or isotonic) was determined as 10.3 mg/mL. Moreover, the “Tumor growth inhibition rate IR” value in data set [4] (total dose 100 mg/kg) is reported as 30.7** %.

`COc1cc2c3c(c4ccc(OC(C)=O)cc4c2cc1OC)C[C@@H]1CCCN1C3.CS(=O)(=O)O` [Compound 45, acetic acid(S)-6,7-dimethoxy-9,10,11,12,12a,13-hexahydro-9a-aza-cyclopenta[b]triphenylene-3-yl ester methanesulfonate]: the “SV40 promoter inhibitory activity IC50” value in the data set with SV40 promoter (SW480/SV40-Luc cells, luciferase) is over 0.1 µg/mL. Moreover, the “NFκB inhibitory activity IC50” value in the data set on NFκB (SW480/NRE-Luc cells, compound 1 h then 50 ng/mL TNFα 4 h, luciferase) is 0.00041 µg/mL. Besides, the “HT-29 proliferation inhibitory action IC50” value in data set [1] worked out at 0.0015 µg/mL. Further, in data set [2], the “A549 proliferation inhibitory action IC50” value was found to be 0.00064 µg/mL. In addition, the solubility in “Solubility of the salts” (in an aqueous solution of 5% glucose, salt form) turned out to be 9.7 mg/mL. Moreover, in data set [3], the “SW480 proliferation inhibitory action IC50” value worked out at 0.00076 µg/mL. Besides, in data set [4] (total dose 200 mg/kg), the “Tumor growth inhibition rate IR” value is 34.7** %.
